The subject of series [1] is human oral epithelial normal cell line (OEC). The series is described as follows: Growth inhibition of normal cells, OEC. Format: cell-based. Conditions: 100 μg/mL, in vitro, read-out: growth inhibition percentage. As for the experimental part: (§1) The compound of Formula I was tested for its antitumor activity against various cancer cell lines, in vitro, in non-small cell lung cancer (A549), colorectal carcinoma (HCT116), prostate cancer (PC3), pharynx squamous carcinoma (FaDu), triple-negative breast cancer (MDA-MB-468), cervical cancer (HeLa), and human oral epithelial normal cell line (OEC).

The subject of series [2] is human non-small cell lung cancer (A549). The series is described as follows: Growth inhibition of cancerous cells, A549. Format: cell-based. Conditions: concentration of 100 μg/mL, in vitro, read-out: growth inhibition percentage. The method, then:
as §1

The test system of series [3] is colorectal carcinoma (HCT116). The series is described as follows: Growth inhibition of cancerous cells, HCT116. As to conditions: Homo sapiens, HCT-116, concentration of 100 μg/mL, in vitro, read-out: growth inhibition percentage. Format: cell-based. The method, then: as §1
The test system of the next series is prostate cancer (PC3). The series is described as follows: Growth inhibition of cancerous cells, PC3. The class given is cell-based. As to conditions: Homo sapiens, concentration of 100 μg/mL, in vitro, read-out: growth inhibition percentage. The method, then: as §1
Series [4] relates to pharynx squamous carcinoma (FaDu). The series is described as follows: Growth inhibition of cancerous cells, FaDu. The class given is cell-based. Conditions: Homo sapiens, concentration of 100 μg/mL, in vitro, read-out: growth inhibition percentage. As for the experimental part:
as §1

In series [5] the test system is triple-negative breast cancer (MDA-MB-468). The series is described as follows: Growth inhibition of cancerous cells, MDA-MB-468. Format: cell-based. As to conditions: Homo sapiens, concentration of 100 μg/mL, in vitro, read-out: growth inhibition percentage. The method, then:
as §1

The subject of another series is cervical cancer (HeLa). The series is described as follows: Growth inhibition of cancerous cells, HeLa. The class given is cell-based. Conditions: Homo sapiens, concentration of 100 μg/mL, in vitro, read-out: growth inhibition percentage. The method, then:
as §1

Each structure is given as a SMILES string.

In the case of `COc1cccc2c1C(=O)c1c(O)c3c(c(O)c1C2=O)C[C@@](O)(C(=O)CO)C[C@@H]3O[C@H]1C[C@H](N)[C@H](O)[C@H](C)O1` [doxorubicin, reference compound], the inhibition (usually how much of the control response was suppressed) at 100 µg/mL in series [1] turned out to be 57.9%.
As to `O=C1S/C(=C/c2ccc(F)cc2)C(=O)N1CCCN1C(=O)c2ccccc2C1=O` [Formula I, 3-(3-(1,3-Dioxoisoindolin-2-yl)propyl)-5-(4-fluorobenzylidene) thiazolidine-2,4-dione], the melting point (as a rule, the temperature of the solid-liquid transition) was in the range of 233 to 234 °C. Moreover, the inhibition at 100 µg/mL in series [2] turned out to be 79.1%. In series [3], the inhibition at 100 µg/mL worked out at 79.3%. Moreover, the inhibition at 100 µg/mL in the series with prostate cancer (PC3) is 84.3%. Further, in series [4], the inhibition at 100 µg/mL worked out at 86.8%. In addition, in series [5], the inhibition at 100 µg/mL came out at 87.8%. Further, the inhibition at 100 µg/mL with cervical cancer (HeLa) is 73.1%. Further, the inhibition at 100 µg/mL in series [1] is 61.2%.

The values are drawn from patent US12150935B1, “3-(3-(1,3-dioxoisoindolin-2-yl) propyl)-5-(4-fluorobenzylidene) thiazolidine-2,4-dione as a potential antitumor and apoptotic inducer” (IMAM MOHAMMAD IBN SAUD ISLAMIC UNIVERSITY, priority 2024, dated 2024).
